The values below are quoted from earlier work in US20190154648A1, “METHODS OF ATTENUATING DRUG EXCIPIENT CROSS REACTIVITY” (Chesapeake Therapeutics, LLC, priority 2016, published 2019).

Counter-ions that a name gives are not always drawn.

For data set [1] the following is noted: in vivo.

`OCCOCCN1CCN(C2=Nc3ccccc3Sc3ccccc32)CC1` [quetiapine fumarate]: in data set [1], the single-dose toxicity entry is “low”. In addition, in the data set on nonhuman primates, the “mechanistically unexplainable side effects in repeat-dose toxicity studies” value was “pigmentation of the thyroid, transient increases in heart rate, posterior triangular cataracts, and reduced lymphocyte count”.
